# Data as given in PMC4537050, “A long pentraxin-3-derived pentapeptide for the therapy of FGF8b-driven steroid hormone-regulated cancers” (Oncotarget, 2015).
# Tests used:
# [1] = system: S115 cells; assay: S115 cell proliferation assay; type: cell-based, mouse; conditions: 30 ng/ml FGF8b or 10 nM DHT, 48 h, viable cell counting
# Protocol: HUVECs were seeded at 18000 cells/cm^2 in medium containing 2.5% FBS and stimulated with 30 ng/ml FGF8b in the absence or presence of increasing concentrations of ARPCA or ARPVA. S115 cells were seeded at 15000 cells/cm^2 in medium containing 4% hormone-deprived dextran-coated charcoal-stripped heat inactivated FBS, followed by 24 h serum starvation in 1:1 mixture of serum-free Ham's F12 and DMEM. Cells were stimulated for 48 h with 30 ng/ml FGF8b or 10 nM DHT in the presence or absence of different concentrations of ARPCA or ARPVA (as specified in the corresponding figures). Viable cell counts were obtained by the counting function of the MACSQuant® Analyzer (Miltenyi Biotec, Bergisch-Gladbach, Germany, EU).
# [2] = system: FGFR1 phosphorylation and ERK1/2 activation in S115 cells; assay: Western blot of FGF8b-treated S115 cells; type: cell-based, mouse; conditions: 30 ng/ml FGF8b, 100 μM peptide, 20 minutes
# Protocol: S115 cells were treated with FGF8b (30ng/ml) in the presence or absence of ARPCA (100 μM) or ARPVA (100 μM). After 20 minutes of incubation cell samples were washed in cold PBS and homogenized in RIPA buffer containing 1% Triton-X100, 0.2% BriJ, 1 mM sodium orthovanadate and protease inhibitors cocktail. Protein concentrations were determined using the Bradford protein assay (Bio-Rad Laboratories, Milano, Italy). Blotting analysis was performed using anti-FGFR1, anti-phospho FGFR1 and anti-phosphoERK1/2 antibodies (Santa Cruz Biotechnology, Santa Cruz, CA, USA). Equal loading of the lanes was confirmed by immunoblotting with anti–αTubulin (Sigma-Aldrich) antibody.
# [3] = In vivo ARPCA toxicity studies
# Protocol: Eight week-old C57BL/6 mice were treated i.p. with 100 mg/kg of ARPCA every other day for two weeks. During this period, animals were weighted for body weight variation analysis. At the end of treatment, whole blood and serum were harvested and analysed for blood components, biochemical serum parameters and circulating levels of FGF23. The serum levels of FGF23 were assessed by ELISA (Uscn Life Science Inc., Wuhan, PRC, Asia) according to manufacturer's instructions. Untreated mice were used as reference/control.
substance,measurement,setting,value
"Ac-ARPCA-NH2 [ARPCA, Ac-ARPCA-NH2]",mitogenic response of S115 cells to FGF8b or DHT,[1],impairs the mitogenic response
same,FGFR1 phosphorylation in S115 cells treated with FGF8b,[2],inhibits FGFR1 phosphorylation
same,MAPK ERK1/2 activation in S115 cells treated with FGF8b,[2],inhibits
same,body weight,[3]; i.p. 100 mg/kg every other day for two weeks,did not affect
same,"hematologic parameters, blood serum components and FGF23 serum levels (in words)","[3]; long-term administration, i.p. 100 mg/kg every other day",did not affect
